{"source": "patent US7595345B2", "about": "“Vitamin D receptor modulators” (Eli Lilly and Company, priority 2003, dated 2009)", "key": {"[1]": {"tested_on": "rat osteocalcin promoter", "experiment": "OCN (osteocalcin) promoter assay", "format": "cell-based", "conditions": "RG-15 (ROS 17/2.8) cells, 48 hr treatment, luciferase", "protocol": "3. The OCN (Osteocalcin) Promoter Assay\nThe OCN Promoter Assay is an indicator and marker for osteoporosis. Desired assay results are EC50 less than or equal to […]. Preferred assay results are less than […].\n(3) Materials and Method for the OCN Promoter Assay:\nThe activation of osteocalcin by VDR ligands was evaluated in a rat osteoblast-like cell line RG-15 (ROS 17/2.8) stably expressing rat osteocalcin promoter fused with luciferase reporter gene. The stable cell lines were established as reported before (Activation of Osteocalcin Transcription involves interaction of protein kinase A- and Protein kinase C-dependent pathways. Boguslawski, G., Hale, L. V., Yu, X.-P., Miles, R. R., Onyia, J. E., Santerre R. F., Chandrasekhar, S. J. Biol. Chem. 275, 999-1006, 2000). Confluent RG-15 cells maintained in DMEM/F-12 medium (3:1) containing 5% FBS, 300 µg/ml G418 and at 37° C. under 5% CO2/95% air atmosphere were trypsinized (0.25% trypsin) and plated into white opaque 96-well cell culture plates (25000 cells/well). After 24 hr, cells (in DMEM/F-12 medium+2% FBS) were treated with various concentrations of compounds, dissolved in DMSO. The final DMSO concentration remained at 0.01% (v/v). After 48 hr treatment, the medium was removed, cells were lysed with 50 µl of lysis buffer (From Luciferase reporter assay system, Roche Diagnostics, Indianapolis, Ind.) and assayed for luciferase activity using the Luciferase Reporter Gene Assay kit from Boehringer Mannheim as per manufacturer's specifications."}, "[2]": {"target": "T1, RXR-VDR heterodimer (Gal4-RXR-DEF and VP16-VDR-LBD) (Homo sapiens, UniProt P11473)", "T1 construct": "Add the Gal4-RXR-DEF and VP16-VDR-LBD; expressed in transfected cells; host or cells: SaOs-2 cells", "T1 sequence (P11473 127-423 limits assumed)": "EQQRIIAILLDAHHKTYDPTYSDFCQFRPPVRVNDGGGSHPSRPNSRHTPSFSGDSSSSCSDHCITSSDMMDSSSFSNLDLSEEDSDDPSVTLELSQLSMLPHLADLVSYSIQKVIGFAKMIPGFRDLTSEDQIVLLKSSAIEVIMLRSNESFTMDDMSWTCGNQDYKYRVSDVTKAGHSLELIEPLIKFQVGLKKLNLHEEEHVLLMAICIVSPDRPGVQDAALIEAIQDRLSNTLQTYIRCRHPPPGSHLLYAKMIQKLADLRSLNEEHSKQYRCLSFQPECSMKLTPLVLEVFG", "T1 sequence (P19793 201-462 partner limits assumed)": "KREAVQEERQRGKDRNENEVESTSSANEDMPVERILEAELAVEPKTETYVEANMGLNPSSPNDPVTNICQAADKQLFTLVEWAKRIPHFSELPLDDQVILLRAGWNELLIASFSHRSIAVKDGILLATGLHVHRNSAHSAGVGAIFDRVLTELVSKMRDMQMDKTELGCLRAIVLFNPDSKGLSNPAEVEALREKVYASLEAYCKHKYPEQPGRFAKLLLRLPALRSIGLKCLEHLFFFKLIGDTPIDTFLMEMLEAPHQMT", "experiment": "RXR-VDR heterodimerization assay (SaOS-2 cells)", "format": "cell-based", "conditions": "luciferase reporter pFR-LUC", "description": "1. The RXR-VDR Heterodimer Assay:\nThis assay provides the VDR activity of a test compound.\nThis is an in vitro efficacy assay for psoriasis, abscess and adhesion. Psoriasis involves both keratinocytes and immune cells. IL-10 is a unique cytokine because it is anti-inflammatory and immunosuppressive. This assay tells us whether a VDRM is able to function as an agonist in PBMCs (primary blood mononuclear cells) or not. […] 7. Other Compound Assay Standards An alternative measure of the efficacy of compounds of the invention for treatment of osteoporosis is a numerical ratio calculated as follows: • Dose Threshold needed to induce hypercalcemia • divided by • Dose Threshold needed for bone efficacy An alternative measure of the efficacy of compounds of the invention for treatment of psoriasis is a numerical ratio calculated as follows: • Dose Threshold needed to induce hypercalcemia • divided by • Dose Threshold needed to induce keratinocyte proliferation For the above ratios, Dose Thresholds are determined from dose response curve data. 8. The CaT1 (Calcium Transport Protein 1) Assay The CaT1 Assay is an indicator for the undesirable condition of hypercalcemia. […] Preferred assay results are greater than 1000 nM. Details of the Assay Methods: (1) Materials and Method for RXR-VDR Heterodimerization Assay: Transfection Method:\nGrow SaOs-2 cells in T-152 cm^2 culture flasks in growth media.\nKeep the density at 5-6×10^5 cells/ml\nPassage cells 1:3 twice a week\nResuspend cells in plating media and transfer into growth media.\nTransfection/Treatment Media:\nD-MEM Low Glucose Without Phenol Red only\nT-152 cm^2 culture flask:\nUse well plate to plate cells\nUse Deep well plate sterile to make up treatment media.\nLuciferase Assay Reagent:\nUse Steady-Glo Luciferase Reagent from Promega (Cat #E2550) Consists of:\na. E2533 Assay Substrate, lyophilized product and\nAspirate media from culture flask, rinse cells with HBSS and aspirate.\nAdd trypsin and incubate. […]\nRead the plates after drug treatment […]\nCount each well using a Luminescence counter, Top Count NXT by Packard […]"}, "[3]": {"experiment": "Mouse hypercalcemia assay", "format": "in vivo", "conditions": "female DBF mice, oral gavage for 6 days, serum ionized calcium 6 hours after last dosing", "description": "4. The Mouse Hypercalcemia Assay\n(4) Materials and Method for the Mouse Hypercalcemia Assay: […]"}}, "note": "Values joined by “and” are separate entries in the source; they are usually repeats but may differ in a detail not shown here. Equal values may be shown once."}
{"smiles": "CCC(CC)(c1ccc(OCC(O)(C(C)C)C(C)C)c(C)c1)c1ccc(C(=O)NCC(=O)O)c(C)c1", "note": "[Ex. 4, (4-{1-Ethyl-1-[4-(2-hydroxy-2-isopropyl-3-methyl-butoxy)-3-methyl-phenyl]-propyl}-2-methyl-benzoylamino)-acetic acid]", "values": [{"measurement": "EC50", "setting": "[1]", "result": 0.0277, "unit": "µM"}, {"measurement": "EC50", "setting": "[1]; Rattus norvegicus, 48 h", "result": 0.021, "unit": "µM"}, {"measurement": "EC50", "setting": "[2]", "result": "0.257 µM and 0.127 µM"}, {"measurement": "Mouse Hypercal", "setting": "[3]", "result": 73000, "unit": "µg/kg/day"}]}
{"smiles": "CCC(O)(CC)COc1ccc(C(CC)(CC)c2ccc(C(=O)NCC(=O)O)c(C)c2)cc1C", "note": "[Ex. 3, (4-{1-ethyl-1-[4-(2-ethyl-2-hydroxy-butoxy)-3-methyl-phenyl]-propyl}-2-methyl-benzoylamino)-acetic acid]", "values": [{"measurement": "EC50", "setting": "[1]", "result": 0.0197, "unit": "µM"}, {"measurement": "EC50", "setting": "[1]; Rattus norvegicus, 48 h", "result": 0.0168, "unit": "µM"}, {"measurement": "EC50", "setting": "[2]", "result": "0.301 µM and 0.149 µM"}, {"measurement": "Mouse Hypercal", "setting": "[3]", "result": 1000, "unit": "µg/kg/day"}]}
